In ChEMBL document CHEMBL3132769, “Fragment growing to retain or alter the selectivity of anchored kinase hinge-binding fragments” (Medchemcomm, 2014) one finds inhibition data, which are given here for seven compounds.

In assay [1] the target is Tyrosine-protein kinase ABL1 (Homo sapiens) (UniProt P00519). As to conditions: 0.1 uM.
Description: Inhibition of human full-length ABL expressed in baculovirus assessed as substrate phosphorylation using fluorescence-labelled peptides as substrate at 0.1 uM after 90 mins by microfluidic peptide phosphorylation assay
The target in assay [2] is T1, Inhibitor of nuclear factor kappa-B kinase subunit beta (Homo sapiens) (UniProt O14920).
T1 sequence (whole entry): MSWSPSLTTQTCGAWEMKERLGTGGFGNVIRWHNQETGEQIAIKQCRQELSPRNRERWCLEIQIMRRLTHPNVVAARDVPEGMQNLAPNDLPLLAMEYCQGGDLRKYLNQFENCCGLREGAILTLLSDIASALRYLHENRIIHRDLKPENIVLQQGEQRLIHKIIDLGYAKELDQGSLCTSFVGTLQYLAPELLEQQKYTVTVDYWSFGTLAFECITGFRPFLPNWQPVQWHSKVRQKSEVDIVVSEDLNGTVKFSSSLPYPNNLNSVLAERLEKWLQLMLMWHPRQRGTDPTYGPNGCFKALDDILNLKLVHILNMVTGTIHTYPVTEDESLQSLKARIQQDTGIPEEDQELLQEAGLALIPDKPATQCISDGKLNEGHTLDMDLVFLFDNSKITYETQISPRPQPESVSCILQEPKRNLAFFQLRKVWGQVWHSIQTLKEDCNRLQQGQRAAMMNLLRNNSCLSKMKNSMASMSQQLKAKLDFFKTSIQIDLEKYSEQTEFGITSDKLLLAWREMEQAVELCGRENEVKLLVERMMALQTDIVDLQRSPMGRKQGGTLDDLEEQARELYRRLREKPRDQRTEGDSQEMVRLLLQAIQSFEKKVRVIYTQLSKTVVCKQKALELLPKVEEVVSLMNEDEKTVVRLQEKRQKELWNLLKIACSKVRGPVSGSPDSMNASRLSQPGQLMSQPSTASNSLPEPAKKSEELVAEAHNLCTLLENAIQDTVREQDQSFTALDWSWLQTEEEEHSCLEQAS
Briefly: Inhibition of human full length IKK beta expressed in baculovirus assessed as substrate phosphorylation using fluorescence-labelled peptides as substrate at 0.2 uM after 90 mins by microfluidic peptide phosphorylation assay.

The target of assay [3] is T2, Serine/threonine-protein kinase 3 (Homo sapiens) (UniProt Q13188).
T2 sequence (whole entry): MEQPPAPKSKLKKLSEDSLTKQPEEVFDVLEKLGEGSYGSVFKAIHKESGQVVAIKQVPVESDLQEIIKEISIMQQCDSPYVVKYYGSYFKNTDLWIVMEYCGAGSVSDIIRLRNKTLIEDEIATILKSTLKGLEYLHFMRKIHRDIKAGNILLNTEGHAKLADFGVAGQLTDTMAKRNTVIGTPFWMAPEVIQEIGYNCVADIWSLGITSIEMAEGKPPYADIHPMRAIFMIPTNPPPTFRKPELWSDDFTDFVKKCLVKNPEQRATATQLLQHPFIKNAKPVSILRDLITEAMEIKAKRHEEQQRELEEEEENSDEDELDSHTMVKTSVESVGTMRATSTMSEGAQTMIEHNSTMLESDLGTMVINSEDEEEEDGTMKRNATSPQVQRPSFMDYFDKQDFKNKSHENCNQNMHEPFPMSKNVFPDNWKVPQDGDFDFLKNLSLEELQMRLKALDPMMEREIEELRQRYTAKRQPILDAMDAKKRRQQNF
The assay is described as follows: Inhibition of human full length MST2 expressed in baculovirus assessed as substrate phosphorylation using fluorescence-labelled peptides as substrate at 0.06 uM after 90 mins by microfluidic peptide phosphorylation assay.

Assay [4] deals with Protein kinase C eta type (Homo sapiens) (UniProt P24723). Briefly: Inhibition of human truncated PKC eta expressed in baculovirus assessed as substrate phosphorylation using fluorescence-labelled peptides as substrate at 95 uM after 90 mins by microfluidic peptide phosphorylation assay.
Assay [5] has as its target T3, Serine/threonine-protein kinase Chk1 (Homo sapiens) (UniProt O14757).
T3 sequence (whole entry): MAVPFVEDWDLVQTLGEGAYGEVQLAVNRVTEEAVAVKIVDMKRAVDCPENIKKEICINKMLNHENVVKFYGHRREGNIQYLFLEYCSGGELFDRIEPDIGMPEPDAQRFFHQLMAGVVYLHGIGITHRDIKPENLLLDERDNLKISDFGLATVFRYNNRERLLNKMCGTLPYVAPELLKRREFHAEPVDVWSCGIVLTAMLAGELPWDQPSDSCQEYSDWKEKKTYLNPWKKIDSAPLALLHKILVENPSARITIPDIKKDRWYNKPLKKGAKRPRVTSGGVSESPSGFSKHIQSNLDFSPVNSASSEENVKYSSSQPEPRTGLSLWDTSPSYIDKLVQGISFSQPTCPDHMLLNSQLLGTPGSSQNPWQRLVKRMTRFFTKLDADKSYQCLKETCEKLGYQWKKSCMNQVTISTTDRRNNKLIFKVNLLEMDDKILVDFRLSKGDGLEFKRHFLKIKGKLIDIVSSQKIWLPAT
Briefly: Inhibition of human full length CHK1 expressed in baculovirus assessed as substrate phosphorylation using fluorescence-labelled peptides as substrate at 95 uM after 90 mins by microfluidic peptide phosphorylation assay.

The target in assay [6] is Casein kinase I isoform delta (Homo sapiens) (UniProt P48730). The assay is described as follows: Inhibition of human CK1D catalytic domain expressed in Escherichia coli cell assessed as substrate phosphorylation using fluorescence-labelled peptides as substrate at 8 uM after 90 mins by microfluidic peptide phosphorylation assay.
For assay [7], the target named is MAP kinase-activated protein kinase 2 (Homo sapiens) (UniProt P49137). Briefly: Inhibition of human full length MAPKAPK2 expressed in baculovirus assessed as substrate phosphorylation using fluorescence-labelled peptides as substrate at 420 uM after 90 mins by microfluidic peptide phosphorylation assay.
Assay [8] addresses Mitogen-activated protein kinase 3 (Homo sapiens) (UniProt P27361). Briefly: Inhibition of human full length ERK1 expressed in Escherichia coli cell assessed as substrate phosphorylation using fluorescence-labelled peptides as substrate at 420 uM after 90 mins by microfluidic peptide phosphorylation assay.
Assay [9] deals with Calcium/calmodulin-dependent protein kinase type II subunit gamma (Homo sapiens) (UniProt Q13555). Briefly: Inhibition of human CAMK2 gamma catalytic domain expressed in baculovirus assessed as substrate phosphorylation using fluorescence-labelled peptides as substrate at 1000 uM after 90 mins by microfluidic peptide phosphorylation assay.

For orientation: inhibition means the share of the control response that was lost under treatment.

Sequence of MAP kinase-activated protein kinase 2 (Homo sapiens) (P49137 whole entry, looked up): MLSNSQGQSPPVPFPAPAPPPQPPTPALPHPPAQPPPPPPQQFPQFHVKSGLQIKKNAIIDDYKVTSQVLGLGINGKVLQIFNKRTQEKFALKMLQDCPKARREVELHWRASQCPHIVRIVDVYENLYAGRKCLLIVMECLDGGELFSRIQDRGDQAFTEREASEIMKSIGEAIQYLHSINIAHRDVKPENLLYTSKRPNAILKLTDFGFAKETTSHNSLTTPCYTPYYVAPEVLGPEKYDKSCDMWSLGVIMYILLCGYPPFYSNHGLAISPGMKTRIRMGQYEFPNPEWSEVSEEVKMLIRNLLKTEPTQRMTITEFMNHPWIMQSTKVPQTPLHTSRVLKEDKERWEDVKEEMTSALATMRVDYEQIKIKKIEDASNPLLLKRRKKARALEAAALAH
Sequence of Calcium/calmodulin-dependent protein kinase type II subunit gamma (Homo sapiens) (Q13555 whole entry, the tested form may be a part): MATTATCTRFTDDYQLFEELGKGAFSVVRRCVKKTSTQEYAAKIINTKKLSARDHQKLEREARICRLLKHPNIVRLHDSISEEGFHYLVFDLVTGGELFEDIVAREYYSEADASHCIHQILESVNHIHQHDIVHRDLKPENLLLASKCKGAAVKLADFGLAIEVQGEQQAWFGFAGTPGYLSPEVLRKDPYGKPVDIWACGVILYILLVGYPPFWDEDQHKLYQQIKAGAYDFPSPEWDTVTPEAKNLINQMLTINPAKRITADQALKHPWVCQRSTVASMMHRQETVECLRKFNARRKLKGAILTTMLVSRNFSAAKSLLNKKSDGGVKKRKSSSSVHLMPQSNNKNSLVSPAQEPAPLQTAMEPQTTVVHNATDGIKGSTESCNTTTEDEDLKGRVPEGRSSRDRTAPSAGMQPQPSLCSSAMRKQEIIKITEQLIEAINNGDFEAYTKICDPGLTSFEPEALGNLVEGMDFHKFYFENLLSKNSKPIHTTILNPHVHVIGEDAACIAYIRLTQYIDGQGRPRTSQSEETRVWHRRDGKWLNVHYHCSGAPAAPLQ
Sequence of Mitogen-activated protein kinase 3 (Homo sapiens) (P27361 whole entry, the tested form may be a part): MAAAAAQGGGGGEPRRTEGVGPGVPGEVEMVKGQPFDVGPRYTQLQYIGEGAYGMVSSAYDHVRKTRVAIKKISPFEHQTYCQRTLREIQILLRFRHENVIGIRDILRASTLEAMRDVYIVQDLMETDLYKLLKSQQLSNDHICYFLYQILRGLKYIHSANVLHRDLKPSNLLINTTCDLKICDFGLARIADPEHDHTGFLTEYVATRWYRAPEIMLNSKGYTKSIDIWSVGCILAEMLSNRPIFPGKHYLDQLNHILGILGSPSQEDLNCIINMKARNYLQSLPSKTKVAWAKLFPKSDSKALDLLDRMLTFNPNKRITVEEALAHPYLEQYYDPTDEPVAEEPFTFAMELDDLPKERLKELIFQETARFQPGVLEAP
Sequence of Tyrosine-protein kinase ABL1 (Homo sapiens) (P00519 whole entry): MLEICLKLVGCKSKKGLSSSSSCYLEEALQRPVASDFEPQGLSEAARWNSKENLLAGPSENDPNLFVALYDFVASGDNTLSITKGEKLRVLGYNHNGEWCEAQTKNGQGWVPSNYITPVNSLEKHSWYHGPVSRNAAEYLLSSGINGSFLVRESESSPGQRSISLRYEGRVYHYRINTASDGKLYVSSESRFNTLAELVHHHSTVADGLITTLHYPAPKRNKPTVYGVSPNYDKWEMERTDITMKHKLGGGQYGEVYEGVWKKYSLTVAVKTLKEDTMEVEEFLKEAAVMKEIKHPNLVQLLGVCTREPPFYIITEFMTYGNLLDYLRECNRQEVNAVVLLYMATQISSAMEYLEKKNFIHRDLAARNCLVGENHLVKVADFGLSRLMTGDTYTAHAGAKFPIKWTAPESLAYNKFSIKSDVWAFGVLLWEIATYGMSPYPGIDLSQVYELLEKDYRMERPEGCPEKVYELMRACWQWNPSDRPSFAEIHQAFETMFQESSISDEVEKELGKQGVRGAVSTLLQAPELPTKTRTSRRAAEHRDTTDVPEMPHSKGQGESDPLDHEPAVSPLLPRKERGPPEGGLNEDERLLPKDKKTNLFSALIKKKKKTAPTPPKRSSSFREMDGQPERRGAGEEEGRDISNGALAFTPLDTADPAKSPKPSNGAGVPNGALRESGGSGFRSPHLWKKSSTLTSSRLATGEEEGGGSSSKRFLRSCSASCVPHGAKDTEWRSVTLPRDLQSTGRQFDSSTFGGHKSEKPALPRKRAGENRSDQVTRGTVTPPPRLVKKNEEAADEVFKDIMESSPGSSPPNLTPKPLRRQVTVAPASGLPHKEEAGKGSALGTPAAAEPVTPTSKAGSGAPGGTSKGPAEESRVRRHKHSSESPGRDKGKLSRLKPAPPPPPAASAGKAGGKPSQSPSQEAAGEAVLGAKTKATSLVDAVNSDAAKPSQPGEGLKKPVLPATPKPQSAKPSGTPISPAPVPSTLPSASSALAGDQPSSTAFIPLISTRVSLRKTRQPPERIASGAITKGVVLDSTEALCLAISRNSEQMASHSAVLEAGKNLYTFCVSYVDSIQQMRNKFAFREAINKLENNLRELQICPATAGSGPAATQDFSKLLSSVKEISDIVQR
Sequence of Protein kinase C eta type (Homo sapiens) (P24723 whole entry, the tested form may be a part): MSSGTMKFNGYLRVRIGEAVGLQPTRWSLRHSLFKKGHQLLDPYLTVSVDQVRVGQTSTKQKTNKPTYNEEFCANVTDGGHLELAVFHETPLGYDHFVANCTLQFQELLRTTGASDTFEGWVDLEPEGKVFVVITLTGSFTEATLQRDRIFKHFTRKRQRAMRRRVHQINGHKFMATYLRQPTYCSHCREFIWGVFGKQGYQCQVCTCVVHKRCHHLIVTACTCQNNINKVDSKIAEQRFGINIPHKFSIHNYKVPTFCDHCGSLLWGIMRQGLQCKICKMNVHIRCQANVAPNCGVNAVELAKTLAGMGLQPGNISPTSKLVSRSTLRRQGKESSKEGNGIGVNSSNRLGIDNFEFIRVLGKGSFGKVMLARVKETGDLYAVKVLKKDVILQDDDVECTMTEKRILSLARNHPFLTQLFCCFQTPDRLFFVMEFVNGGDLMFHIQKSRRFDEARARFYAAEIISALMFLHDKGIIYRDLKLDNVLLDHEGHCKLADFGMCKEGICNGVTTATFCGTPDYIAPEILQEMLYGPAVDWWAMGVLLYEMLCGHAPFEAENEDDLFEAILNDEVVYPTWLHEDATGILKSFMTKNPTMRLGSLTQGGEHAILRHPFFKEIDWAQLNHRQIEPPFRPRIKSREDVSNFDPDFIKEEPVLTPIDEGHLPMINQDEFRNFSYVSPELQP
Sequence of Casein kinase I isoform delta (Homo sapiens) (P48730 whole entry, looked up, the tested form may be a part, canonical isoform): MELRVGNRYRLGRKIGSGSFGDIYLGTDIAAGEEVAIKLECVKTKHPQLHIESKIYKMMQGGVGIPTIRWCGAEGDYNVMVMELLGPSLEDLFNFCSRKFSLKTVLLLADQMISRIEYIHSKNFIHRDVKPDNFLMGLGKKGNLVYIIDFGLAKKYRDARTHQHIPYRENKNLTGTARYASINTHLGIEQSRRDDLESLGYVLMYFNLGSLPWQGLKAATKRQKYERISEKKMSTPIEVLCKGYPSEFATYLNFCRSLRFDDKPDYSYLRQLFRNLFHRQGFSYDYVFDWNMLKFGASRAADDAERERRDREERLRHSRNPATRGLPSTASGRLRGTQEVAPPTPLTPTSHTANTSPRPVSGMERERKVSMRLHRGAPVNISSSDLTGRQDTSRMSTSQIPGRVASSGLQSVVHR

In assay [1], `C[C@H](CN(C)C)Oc1nc(Nc2cc3cccc(Cl)c3cn2)cnc1C#N` had an inhibition of 0%.

Turning to `Clc1ccc(C2(c3ccc(-c4ncnc5[nH]cnc45)cc3)CCNCC2)cc1`, the inhibition in [2] was found to be 81%.

On to `NC1(Cc2ccc(Cl)cc2)CCN(c2ncnc3[nH]ccc23)CC1`, for which the inhibition in assay [3] came out at 3%.

For `NCCc1ccc(-c2ncnc3[nH]cnc23)cc1`, the inhibition in assay [4] was 86.5%; in assay [5], 75.5%.

Consider `NCC1CCN(c2ncnc3[nH]ccc23)CC1`, for which the inhibition in assay [6] is 25.5%.

On to `c1nc(N2CCOCC2)c2nc[nH]c2n1`, for which the inhibition in assay [7] was 74%; in [8], 78.5%.

As for `c1cnc2[nH]ccc2c1`, the inhibition in assay [9] came to 24.5%.
